Molecular target: Human PDE4 Enzyme
Experiment: PDE4 screening assay ([3H]cAMP SPA)
Type: biochemical
Conditions: human neutrophil PDE4, [3H]cAMP SPA
Experimental: The neutrophils were isolated from human blood using a standard procedure, then homogenized with a glass-glass homogenizer in a buffer containing 20 mM Tris/HCl (pH 8.0), protease inhibitor cocktail tablet (Cat. No. 1836145/Boehringer Mannheim), 2 mM EDTA, 1% Triton X-100 and 0.5% deoxycholate. After stirring for 2 h at 4° C., the samples were centrifuged at 100,000 g for 1 h. The supernatants were collected, filtered and applied to Mono Q column chromatography. The fractions containing the activity of hydrolyzing cAMP were determined and pooled as the enzymatic source of the PDE4 screening assay.
2. PDE4 Assay and Compound Screening
The PDE4 assays were performed using Phosphodiesterase [^3H]cAMP SPA enzyme assay kits and its procedures (Cat. No. TRKQ 7090, Amersham). The assay procedures are described briefly as follows. The diluted PDE4 enzyme, 10× assay buffer and water were mixed at a ratio of 1:1:6 (10 μl/10 μl/60 μl). 80 μl aliquots of this mixture were added into the test wells of a 96-well Microlite plate (Cat. No. 7416, ThermoLabsystems). Enzyme dilution buffer, instead of the diluted enzyme, and water were added into the wells of negative control (background). 10 μl test compounds in 10% DMSO, standard inhibitor in 10% DMSO or 10% DMSO (for positive and negative controls) were added into the corresponding wells, respectively. After a 10 min incubation at RT, the reactions were initiated by addition of 10 μl pre-diluted [^3H]cAMP into each well, then incubated at 30° C. for 30 min. The reactions were stopped by addition of 50 μl SPA beads into the test wells, then counted in a β-counter over 30 min ˜24 hr.
10× Assay Buffer: 500 mM Tris/HCl pH 7.5, 83 mM MgCl2, 17 mM EGTA
[^3H]cAMP: [3H] cAMP (40-60 Ci/mmol) is diluted at a 1:200 ratio with water. The final concentration is 0.005 μCi/μl
Yttrium SPA Beads: 500 mg of beads was reconstituted with 28 ml of water, stored at 4° C.

IC50 [nM] | Compound
0.5 | COc1ccc(-c2nc(C(=O)N3CCN(C(=O)C4CC4)CC3)c([C@H](C)N)o2)c2ccc(C(F)(F)F)nc12 [26-293]
0.2 | COc1ccc(-c2nc(C(=O)N3C[C@](O)(c4ncccn4)C[C@H]3C(=O)OC(C)C)c([C@H](C)N)o2)c2ccc(C(F)(F)F)nc12 [26-241]
0.01 | COc1ccc(-c2nc(C(=O)NCc3coc4ccccc34)c([C@H](C)N)o2)c2ccc(C(F)(F)F)nc12 [26-92]
0.03 | COc1ccc(-c2nc(C(=O)NC[C@@H](C)NC(=O)C3CC3)c([C@H](C)N)o2)c2ccc(C(F)(F)F)nc12 [26-444]
0.14 | COc1ccc(-c2nc(C(=O)NCc3csc4ccccc34)c(CN)o2)c2ccc(C(F)(F)F)nc12 [13-106]
1.4 | COc1ccc(-c2nc(C(=O)N[C@H]3CCC[C@@H]3O)c([C@H](C)N)o2)c2ccc(C(F)(F)F)nc12 [26-417]
1.8 | COc1ccc(-c2nc(C(=O)NCc3ccc(F)cc3F)c([C@@H](N)CO)o2)c2ccc(C(F)(F)F)nc12 [38-3]
0.07 | COc1ccc(-c2nc(C(=O)NC3CCCc4nccnc43)c([C@H](C)N)o2)c2ccc(C(F)(F)F)nc12 (mixture of isomers) [26-42]
3 | COc1ccc(-c2nc(C(=O)N3CCC(Nc4ncccn4)CC3)c([C@H](C)N)o2)c2ccc(C(F)(F)F)nc12 [26-177]
